pIC50, pKi: −log10 of the molar value.
How the values were obtained:
[1] = DRUGMATRIX: Glutamate, NMDA, Phencyclidine radioligand binding (ligand: [3H] TCP); assay type: cell membranes, Rattus norvegicus, Wistar, Cerebral cortex, Membrane; details: Not Active = under 50% inhibition at 10 µM
D(4) dopamine receptor = target: T1, D(4) dopamine receptor (Homo sapiens, UniProt P21917); experiment: DRUGMATRIX: Dopamine D4.2 radioligand binding (ligand: [3H] Spiperone); assay type: cell membranes, CHO-K1, Membrane; details: Not Active = under 50% inhibition at 10 µM; for IC50: cho-k1; for pIC50: read-out: IC50; for pKi: read-out: Ki
T1 sequence (P21917 whole entry): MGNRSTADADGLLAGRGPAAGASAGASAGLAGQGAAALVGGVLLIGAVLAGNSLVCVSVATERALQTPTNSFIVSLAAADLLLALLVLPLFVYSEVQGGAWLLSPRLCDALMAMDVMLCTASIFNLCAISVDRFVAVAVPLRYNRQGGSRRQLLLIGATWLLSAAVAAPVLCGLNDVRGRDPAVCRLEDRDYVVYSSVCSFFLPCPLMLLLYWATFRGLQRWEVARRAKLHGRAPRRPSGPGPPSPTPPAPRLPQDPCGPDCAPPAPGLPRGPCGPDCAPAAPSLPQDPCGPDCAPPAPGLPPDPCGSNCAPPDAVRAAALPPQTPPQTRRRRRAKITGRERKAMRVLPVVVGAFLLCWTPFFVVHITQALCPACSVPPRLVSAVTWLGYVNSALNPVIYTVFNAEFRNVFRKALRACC

[2] = target: T2, C-X-C chemokine receptor type 2 (Homo sapiens, UniProt P25025); assay type: cell membranes, Membrane; details: cho-k1; further: in other assays of this panel Not Active means under 50% inhibition at 10 µM
T2 sequence (P25025 whole entry): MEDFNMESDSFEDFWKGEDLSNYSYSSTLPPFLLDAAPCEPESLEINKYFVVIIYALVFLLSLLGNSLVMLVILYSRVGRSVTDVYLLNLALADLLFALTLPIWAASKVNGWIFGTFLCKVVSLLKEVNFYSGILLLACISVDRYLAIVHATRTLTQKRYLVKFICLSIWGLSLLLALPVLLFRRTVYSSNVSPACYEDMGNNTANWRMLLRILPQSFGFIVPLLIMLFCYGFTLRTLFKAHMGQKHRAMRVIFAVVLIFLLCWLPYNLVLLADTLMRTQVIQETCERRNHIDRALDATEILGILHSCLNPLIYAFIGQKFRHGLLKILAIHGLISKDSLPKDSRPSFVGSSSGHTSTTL

[3] = DRUGMATRIX: Glutamate, Kainate radioligand binding (ligand: [3H] Kainic acid); assay type: cell membranes, Rattus norvegicus, Wistar, Brain, Membrane; details: Not Active = under 50% inhibition at 10 µM
Cytochrome P450 3A4 = Cytochrome P450 3A4 (Homo sapiens, UniProt P08684); details: bti-tn-5b1-4; further: in other assays of this panel Not Active means under 50% inhibition at 10 µM
Cytochrome P450 3A4, sequence (P08684 whole entry): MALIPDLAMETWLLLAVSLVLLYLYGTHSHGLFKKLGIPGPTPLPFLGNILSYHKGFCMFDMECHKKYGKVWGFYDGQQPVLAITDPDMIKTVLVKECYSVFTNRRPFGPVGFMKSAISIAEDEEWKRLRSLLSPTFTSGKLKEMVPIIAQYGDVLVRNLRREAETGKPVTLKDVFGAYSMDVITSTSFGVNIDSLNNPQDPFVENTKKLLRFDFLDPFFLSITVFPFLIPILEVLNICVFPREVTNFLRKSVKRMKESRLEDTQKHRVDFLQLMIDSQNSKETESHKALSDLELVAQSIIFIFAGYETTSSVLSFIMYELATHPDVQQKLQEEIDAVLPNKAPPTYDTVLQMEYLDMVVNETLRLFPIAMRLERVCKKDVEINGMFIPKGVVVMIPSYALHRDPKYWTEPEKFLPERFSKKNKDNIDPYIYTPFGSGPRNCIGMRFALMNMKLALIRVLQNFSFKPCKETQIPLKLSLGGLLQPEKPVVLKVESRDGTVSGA

Estrogen receptor = target: T3, Estrogen receptor (Homo sapiens, UniProt P03372); details: sf9; further: in other assays of this panel Not Active means under 50% inhibition at 10 µM
T3 sequence (P03372 whole entry): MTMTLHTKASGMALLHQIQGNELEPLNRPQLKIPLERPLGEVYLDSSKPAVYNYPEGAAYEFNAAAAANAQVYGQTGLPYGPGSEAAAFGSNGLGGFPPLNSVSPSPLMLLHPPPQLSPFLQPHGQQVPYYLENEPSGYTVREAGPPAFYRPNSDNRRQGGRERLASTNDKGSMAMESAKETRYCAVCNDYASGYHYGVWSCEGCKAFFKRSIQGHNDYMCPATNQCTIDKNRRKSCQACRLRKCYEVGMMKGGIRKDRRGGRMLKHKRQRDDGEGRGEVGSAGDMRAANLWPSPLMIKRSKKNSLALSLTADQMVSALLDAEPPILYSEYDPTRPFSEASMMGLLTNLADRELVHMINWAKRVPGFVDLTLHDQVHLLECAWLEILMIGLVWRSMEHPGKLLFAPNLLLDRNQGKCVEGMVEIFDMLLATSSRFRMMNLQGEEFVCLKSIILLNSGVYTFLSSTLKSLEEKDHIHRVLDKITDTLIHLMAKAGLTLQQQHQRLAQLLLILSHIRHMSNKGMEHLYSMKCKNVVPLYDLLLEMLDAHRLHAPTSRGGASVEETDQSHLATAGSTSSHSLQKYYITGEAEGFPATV

SMILES	IC50 [1]	Ki [1]	IC50 (D(4) dopamine receptor)	IC50 [2]	IC50 [3]	Ki [3]	IC50 (Cytochrome P450 3A4)	Ki (Cytochrome P450 3A4)	IC50 (Estrogen receptor)	pIC50 (D(4) dopamine receptor)	pKi (D(4) dopamine receptor)
CC(=O)[C@@]1(O)CC[C@H]2[C@@H]3C[C@H](C)C4=CC(=O)CC[C@]4(C)[C@H]3CC[C@@]21C	Not Active	Not Active	Not Active	Not Active	Not Active	Not Active	Not Active	Not Active	Not Active		
N[C@@H](Cc1ccc(N(CCCl)CCCl)cc1)C(=O)O	Not Active	Not Active	Not Active	Not Active	Not Active	Not Active	Not Active	Not Active			
CCCCc1oc2ccccc2c1C(=O)c1cc(I)c(OCCN(CC)CC)c(I)c1 [AMIODARONE]				Not Active					Not Active	4.75	5.21
N[C@@H](Cc1ccc(O)c(O)c1)C(=O)O [LEVODOPA]	Not Active	Not Active	Not Active	Not Active	Not Active	Not Active	Not Active	Not Active			
N[C@@H](Cc1cc(I)c(Oc2ccc(O)c(I)c2)c(I)c1)C(=O)O [LIOTHYRONINE]			Not Active	Not Active					Not Active		
O=NN(CCCl)C(=O)NC1CCCCC1 [LOMUSTINE]	Not Active	Not Active	Not Active	Not Active	Not Active	Not Active	Not Active	Not Active			
CCOC(=O)N1CCC(=C2c3ccc(Cl)cc3CCc3cccnc32)CC1 [LORATADINE]	Not Active	Not Active	Not Active	Not Active	Not Active	Not Active			Not Active		
Cn1ccnc1S [METHIMAZOLE]	Not Active	Not Active	Not Active	Not Active	Not Active	Not Active			Not Active		
CN1CCN(CCCN2c3ccccc3Sc3ccc(Cl)cc32)CC1 [PROCHLORPERAZINE]				Not Active			Not Active	Not Active	Not Active	5.64	6.09
CO[C@H]1/C=C/O[C@@]2(C)Oc3c(C)c(O)c4c(O)c(c(/C=N/N5CCN(C)CC5)c(O)c4c3C2=O)NC(=O)/C(C)=C\C=C\[C@H](C)[C@H](O)[C@@H](C)[C@@H](O)[C@@H](C)[C@H](OC(C)=O)[C@@H]1C [RIFAMPIN]	Not Active	Not Active	Not Active	Not Active	Not Active	Not Active					
Nc1nc2ccc(OC(F)(F)F)cc2s1 [RILUZOLE]	Not Active	Not Active	Not Active	Not Active	Not Active	Not Active			Not Active		
Cc1nc2n(c(=O)c1CCN1CCC(c3noc4cc(F)ccc34)CC1)CCCC2 [RISPERIDONE]			Not Active	Not Active					Not Active		
CC/C(=C(\c1ccccc1)c1ccc(OCCN(C)C)cc1)c1ccccc1 [TAMOXIFEN]				Not Active			Not Active	Not Active		4.95	5.41
CC1(C)O[C@@H]2C[C@H]3[C@@H]4CCC5=CC(=O)C=C[C@]5(C)[C@@]4(F)[C@@H](O)C[C@]3(C)[C@]2(C(=O)CO)O1 [TRIAMCINOLONE ACETONIDE]	Not Active	Not Active	Not Active	Not Active	Not Active	Not Active	Not Active	Not Active			
NS(=O)(=O)c1cc2c(cc1Cl)NC(C(Cl)Cl)NS2(=O)=O (configuration not stated) [TRICHLORMETHIAZIDE]	Not Active	Not Active	Not Active	Not Active	Not Active	Not Active	Not Active	Not Active			
